# Data: patent US20250092067A1, “APT1 and APT2 Inhibitors and Uses Thereof” (Cornell University, priority 2021, published 2025)
# Where “and” joins values, the source holds several entries; their conditions need not be identical. Equal entries are not always repeated. Where two headings read alike, the source gives them in different places.
# How the values were obtained:
# [1] = biological target: T1, APT2 (Homo sapiens, UniProt O95372); assay: APT2 enzymatic assay, resorufin acetate as fluorogenic substrate; type: biochemical; parameters: made in house; host or cells: E. coli BL21 (DE3)
# T1 sequence (O95372 whole entry): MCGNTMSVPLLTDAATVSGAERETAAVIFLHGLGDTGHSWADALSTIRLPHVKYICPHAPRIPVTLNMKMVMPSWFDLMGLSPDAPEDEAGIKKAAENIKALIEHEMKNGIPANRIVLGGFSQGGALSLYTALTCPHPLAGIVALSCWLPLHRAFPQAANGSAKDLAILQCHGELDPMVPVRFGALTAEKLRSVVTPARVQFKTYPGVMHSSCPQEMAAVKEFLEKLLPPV
# [2] = biological target: T2, APT1 (Homo sapiens, UniProt O75608); assay: APT1 enzymatic assay, resorufin acetate as fluorogenic substrate; type: biochemical
# T2 construct: made in house; host or cells: E. coli BL21 (DE3)
# T2 sequence (O75608 whole entry): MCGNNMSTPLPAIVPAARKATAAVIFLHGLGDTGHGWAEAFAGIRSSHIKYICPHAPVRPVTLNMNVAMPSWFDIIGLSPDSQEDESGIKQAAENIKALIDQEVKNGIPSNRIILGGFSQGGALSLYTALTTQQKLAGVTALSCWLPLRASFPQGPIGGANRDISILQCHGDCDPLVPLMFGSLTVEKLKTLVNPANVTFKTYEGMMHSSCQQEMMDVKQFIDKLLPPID
# [3] = 50 mg/kg daily injection
# [4] = biological target: T2, APT1; assay: Competitive in vitro ABPP with TAMRA-FP, cell lysate spiked with APT1; type: binding; conditions: qualitative, FIG. 6C
# [5] = biological target: T1, APT2; assay: Gel filtration assay to identify covalent inhibitors (TAMRA-FP labeling); type: biochemical; parameters: expressed in transfected cells; host or cells: HEK 293T
# [6] = test system: STAT3 palmitoylation; assay: STAT3 palmitoylation in HEK 293T cells expressing STAT3 and DHHC7 (endogenous APT2); type: cell-based; conditions: 16-hour treatment; for palmitoylation signal of STAT3: 50 μM
# [7] = test system: DSS induced colitis; assay: Dextran sodium sulfate (DSS) induced colitis model; type: in vivo, mice; conditions: for lengths of the colons compared to the control groups / colon length longer than the control group / colon length difference to control: 50 mg/kg intraperitoneal; for lengths of the colons compared to the control groups: 2.5% DSS, all groups; for body weight loss / colon length longer than the control group: female mice; for difference in body weight / colon length difference to control: male mice
# [8] = biological target: T1, APT2; assay: Competitive in vitro ABPP with TAMRA-FP, cell lysate spiked with APT2; type: binding; parameters: made in house; host or cells: E. coli BL21 (DE3); conditions: for inhibition at 90 µM: inhibitor at 90 μM
# [9] = test system: off target proteins; assay: TAMRA-FP ABPP in APT2 spiked cell lysate, other bands (off targets); type: binding; conditions: FIG. 8
# [10] = test system: SMAD2 palmitoylation; assay: SMAD2 palmitoylation in HEK 293T cells (Alk14 labeling, in-gel fluorescence); type: cell-based; conditions: inhibitors at 25 μM, 6 h
# [11] = test system: STAT3 palmitoylation; assay: STAT3 palmitoylation in HEK 293T cells transfected with STAT3, APT2 and DHHC7; type: cell-based; conditions: inhibitors at 25 μM for 16 hours
# [12] = test system: HEK 293T cells; assay: Cell viability of HEK 293T cells; conditions: at 50 mM (so in the source)
# [13] = Table 1, resorufin acetate as the substrate, read-out: IC50 (μM) APT2
# [14] = Table 2, class symbols, read-out: IC50 (μM) APT2
# [15] = Table 1, resorufin acetate as the substrate, read-out: IC50 (μM) APT1
# [16] = Table 2, class symbols, read-out: IC50 (μM) APT1
# [17] = Example 3 (FIG. 4), 15 min pre-incubation, read-out: IC50 APT2
# [18] = read-out: inhibition of TAMRA-FP fluorescent labeling of APT2
# [19] = Example 3 (FIG. 4), 15 min pre-incubation
compound,measurement,setting,value
CCCOc1ccc(N2CCN(C(=O)c3cc4c(s3)-c3ccccc3S(=O)(=O)C4)CC2)cc1 [APT-MY1],IC50,[1]; [13],0.836 µM
same,IC50,[1]; [14],0.1 to 1 µM
same,IC50,[2]; [15],> 200 µM
same,IC50,[2]; [16],> 40 µM
CCCCCCOc1ccc(N2CCN(C(=O)c3cc4c(s3)-c3ccccc3S(=O)(=O)C4)CC2)cc1 [APT-MY2],IC50,[1]; [13],2.03 µM
same,IC50,[1]; [14],1 to 40 µM
same,IC50,[2]; [15],> 200 µM
same,IC50,[2]; [16],> 40 µM
"CCCNC(=O)c1cc2c(s1)-c1ccccc1S(=O)(=O)C2 [APT-MY3, N-Propyl-4H-thieno[3,2-c]thiochromene-2-carboxamide 5,5-dioxide]",IC50,[1]; [13],> 200 µM
same,IC50,[1]; [14],> 40 µM
same,IC50,[2]; [15],> 200 µM
same,IC50,[2]; [16],> 40 µM
"CCCCCCN1CCN(C(=O)c2cc3c(s2)-c2ccccc2S(=O)(=O)C3)CC1 [APT-MY4, (5,5-dioxido-4H-thieno[3,2-c]thiochromen-2-yl) (4-hexylpiperazin-1-yl) methanone]",IC50,[1]; [13],3.99 µM
same,IC50,[1]; [14],1 to 40 µM
same,IC50,[2]; [15],> 200 µM
same,IC50,[2]; [16],> 40 µM
"Cc1ccc(NC(=O)c2cc3c(s2)-c2ccccc2S(=O)(=O)C3)cc1 [APT-MY5, N-(p-tolyl)-4H-thieno[3,2-c]thiochromene-2-carboxamide 5,5-dioxide]",IC50,[1]; [13],> 200 µM
same,IC50,[1]; [14],> 40 µM
same,IC50,[2]; [15],> 200 µM
same,IC50,[2]; [16],> 40 µM
"CCCCCCCCc1ccc(NC(=O)c2cc3c(s2)-c2ccccc2S(=O)(=O)C3)cc1 [APT-MY6, N-(4-octylphenyl)-4H-thieno[3,2-c]thiochromene-2-carboxamide 5,5-dioxide]",IC50,[1]; [13],> 200 µM
same,IC50,[1]; [14],> 40 µM
same,IC50,[2]; [15],> 200 µM
same,IC50,[2]; [16],> 40 µM
"CCCCCCCCNC(=O)c1cc2c(s1)-c1ccccc1S(=O)(=O)C2 [APT-MY7, N-octyl-4H-thieno[3,2-c]thiochromene-2-carboxamide 5,5-dioxide]",IC50,[1]; [13],> 200 µM
same,IC50,[1]; [14],> 40 µM
same,IC50,[2]; [15],> 200 µM
same,IC50,[2]; [16],> 40 µM
COc1ccc(N2CCN(C(=O)c3cc4c(s3)-c3ccccc3[S+]([O-])C4)CC2)cc1 (centres unmarked) [APT-MY8],IC50,[2]; [15],> 200 µM
same,IC50,[2]; [16],> 40 µM
"COc1ccc(N2CCN(C(=O)c3cc4cc(B(O)O)c5ccccc5c4s3)CC2)cc1 [KW5129, (2-(4-(4-Methoxyphenyl)piperazine-1-carbonyl)naphtho[1,2-b]thiophen-5-yl)boronic acid]",IC50,[1]; [17],0.079 µM
same,more potent at inhibiting APT2 compared with ML349,[1]; relative to ML349,~9 times
same,tolerability in mice,[3],well tolerated
same,APT1 IC50 higher than APT2 IC50,[2]; APT1 IC50 versus APT2 IC50,about 5.2 fold
same,IC50,"[2]; Example 3 (FIG. 4), 15 min pre-incubation, read-out: IC50 APT1",0.41 µM
same,inhibition of APT1 in competitive ABPP,[4],could also inhibit APT1
same,mode of APT2 inhibition (covalent or non-covalent),[5]; from gel filtration assay,non-covalent inhibitor
same,TAMRA-FP fluorescent labeling of APT2 after gel filtration,"[5]; lysate treated with inhibitor, passed over size exclusion column",almost complete fluorescent labeling after just one gel filtration
same,palmitoylated STAT3,[6]; 25 μM,significant increase
same,palmitoylation signal of STAT3,[6],more potent
same,lengths of the colons compared to the control groups,[7],significant increase
same,body weight loss,[7],less severe
same,colon length longer than the control group,[7],1.4 cm
same,difference in body weight,[7],no statistically significant difference
same,colon length difference to control,[7],~0.5 cm
same,inhibition at 90 µM,[8]; [18],~90%
same,inhibition of TAMRA-FP fluorescent labeling of APT2,[8]; inhibitor at 270 μM,almost completely abolished
same,change of fluorescent intensity in bands other than APT2 (off target reaction),[9],only seen in the APT2 band
COc1ccc(N2CCN(C(=O)c3cc4cc(B(O)O)c5ccccc5c4s3)CC2)cc1 [KW05129],IC50,[1]; [13],0.079 µM
same,IC50,[1]; [14],< 0.1 µM
same,time-dependent inhibition of APT2,[1]; pre-incubation 30 min versus standard,not observed
same,APT2 IC50 lower than that of ML349,[1]; relative to ML349,8.54 fold
same,IC50,[2]; [15],0.19 µM
same,IC50,[2]; [16],0.1 to 1 µM
same,SMAD2 palmitoylation level,[10],slightly better than ML349
same,STAT3 palmitoylation level (acylation normalized by STAT3 protein),[11],slightly better than ML349
same,effect on cell viability,[12],no effect
"COc1ccc(N2CCN(C(=O)c3cc4cc(O)c5ccccc5c4s3)CC2)cc1 [KW5130, (5-Hydroxynaphtho[1,2-b]thiophen-2-yl) (4-(4-methoxyphenyl)piperazin-1-yl) methanone]",IC50,[1]; [17],~5 µM
"COc1ccc(N2CCN(C(=O)c3ccc(-c4ccccc4B(O)O)s3)CC2)cc1 [KW5175, (2-(5-(4-(4-methoxyphenyl)piperazine-1-carbonyl)thiophen-2-yl)phenyl)boronic acid]",IC50 APT2,[1]; [19],much less potent
COc1ccc(N2CCN(C(=O)c3ccc(-c4ccccc4B(O)O)s3)CC2)cc1 [KW05175],IC50,[1]; [13],16.1 µM
same,IC50,[1]; [14],1 to 40 µM
"COc1ccc(N2CCN(C(=O)c3cc4cc(S(=O)(=O)F)c5ccccc5c4s3)CC2)cc1 [KW5191, 2-(4-(4-Methoxyphenyl)piperazine-1-carbonyl)naphtho[1,2-b]thiophene-5-sulfonyl fluoride]",IC50,[1]; IC50 APT2,1.8 µM
COc1ccc(N2CCN(C(=O)c3cc4cc(S(=O)(=O)F)c5ccccc5c4s3)CC2)cc1 [KW05191],IC50,[1]; IC50 (μM) APT2,1.77 µM and 1 to 40 µM
"COc1ccc(N2CCN(C(=O)c3cc(B(O)O)cs3)CC2)cc1 [KW5192, (5-(4-(4-Methoxyphenyl)piperazine-1-carbonyl)thiophen-3-yl)boronic acid]",IC50,[1]; [17],1.1 µM
COc1ccc(N2CCN(C(=O)c3cc(B(O)O)cs3)CC2)cc1 [KW05192],IC50,[1]; [13],1.06 µM
same,IC50,[1]; [14],1 to 40 µM
"O=C(CN1CCN(C(=O)c2ccco2)CC1)Nc1cc(C(F)(F)F)ccc1Cl [ML348, reference compound]",IC50,[1]; [13],> 200 µM
same,IC50,[1]; [14],> 40 µM
"COc1ccc(N2CCN(C(=O)c3cc4c(s3)-c3ccccc3S(=O)(=O)C4)CC2)cc1 [ML349, reference compound]",IC50,[1]; [13],0.675 µM
same,IC50,[1]; [14],0.1 to 1 µM
same,IC50,[2]; [15],> 200 µM
same,IC50,[2]; [16],> 40 µM
same,APT2 selectivity / inhibition of APT1,"[2]; qualitative, FIG. 4",selective for APT2
same,STAT3 palmitoylation level (acylation normalized by STAT3 protein),[11],increase STAT3 palmitoylation levels
same,palmitoylation signal of STAT3,[6],slightly increased
same,lengths of the colons compared to the control groups,[7],significant increase
same,body weight loss,[7],less severe
same,colon length longer than the control group,[7],1.4 cm
same,difference in body weight,[7],no statistically significant difference
same,colon length difference to control,[7],~0.5 cm
same,inhibition at 90 µM,[8]; [18],~70%
same,inhibition at 270 µM,"[8]; inhibitor at 270 μM, read-out: inhibition of TAMRA-FP fluorescent labeling of APT2",~70%
same,effect on cell viability,[12],no effect
same,change of fluorescent intensity in bands other than APT2 (off target reaction),[9],only seen in the APT2 band
"CCCOc1ccc(N2CCN(C(=O)c3cc4c(s3)-c3ccccc3S(=O)(=O)C4)CC2)cc1 [MY1, (5,5-Dioxido-4H-thieno[3,2-c]thiochromen-2-yl) (4-(4-propoxyphenyl)piperazin-1-yl) methanone]",IC50 APT2,[1]; [19],did not improve the potency
"CCCCCCOc1ccc(N2CCN(C(=O)c3cc4c(s3)-c3ccccc3S(=O)(=O)C4)CC2)cc1 [MY2, (5,5-dioxido-4H-thieno[3,2-c]thiochromen-2-yl) (4-(4-(hexyloxy)phenyl)piperazin-1-yl) methanone]",IC50 APT2,[1]; [19],did not improve the potency
